Experimental data taken from US11174298B2, “Preparation and use of ginsentides and ginsentide-like peptides” (priority 2016, dated 2021).

Columns and labels:
[1] = test system: H9c2 cells; assay: MTT cell viability of H9c2 cells, co-treatment with DOX; type: cell-based, rat
Method: To identify whether ginsentides can attenuate DOX-induced cardiotoxicity in cardiomyocytes, cell viability after drug treatment was measured by MTT assay.
After 24 h co-treatment of DOX with ginsentides, the viability of H9c2 cells was enhanced by ˜20% compared to the DOX-alone treatment (FIG. 43.).

[2] = test system: isolated thoracic aorta; assay: KCl-induced aortic ring contraction, isometric tension, ex vivo; design: species or system rat; settings: thoracic aorta pre-contracted with KCl (30 mM)
[3] = test system: human endothelial cells (HUVEC-CS); assay: Cellular NO synthesis in HUVEC-CS (DAF-2 DA staining); type: cell-based
[4] = Heparin HPLC affinity column; type: binding
From the text: Heparin-binding properties of ginsentides using heparin HPLC affinity column.

[5] = test system: α1-adrenergic receptor; assay: Phenylephrine-induced aortic ring contraction, isometric tension, ex vivo; design: species or system rat; settings: thoracic aorta pre-contracted with phenylephrine (0.1 μM)

Row | Compound | Protective effects on cardiomyocytes during DOX-treatment [1] | Relaxation of KCl-induced contracted aortic ring [2] | Cellular NO release compared among ginsentides [3] | Retention in heparin HPLC affinity column [4] | Relaxation of phenylephrine-induced aortic ring contraction [5]
1 | CC(C)=CCC[C@](C)(O[C@@H]1O[C@H](CO[C@@H]2O[C@H](CO)[C@@H](O)[C@H](O)[C@H]2O)[C@@H](O)[C@H](O)[C@H]1O)[C@H]1CC[C@]2(C)[C@@H]1[C@H](O)C[C@@H]1[C@@]3(C)CC[C@H](O[C@@H]4O[C@H](CO)[C@@H](O)[C@H](O)[C@H]4O[C@@H]4O[C@H](CO)[C@@H](O)[C@H](O)[C@H]4O)C(C)(C)[C@@H]3CC[C@]12C [ginsenoside Rb1] | did not showed any protective effects |  |  |  | 
2 | CC(C)=CCC[C@](C)(O[C@@H]1O[C@H](CO)[C@@H](O)[C@H](O)[C@H]1O)[C@H]1CC[C@]2(C)[C@@H]1[C@H](O)C[C@@H]1[C@@]3(C)CC[C@H](O)C(C)(C)[C@@H]3[C@@H](O[C@@H]3O[C@H](CO)[C@@H](O)[C@H](O)[C@H]3O[C@@H]3O[C@@H](C)[C@H](O)[C@@H](O)[C@H]3O)C[C@]12C [ginsenoside Re] | did not showed any protective effects |  |  |  | 
3 | CC(C)=CCC[C@](C)(O[C@@H]1O[C@H](CO)[C@@H](O)[C@H](O)[C@H]1O)[C@H]1CC[C@]2(C)[C@@H]1[C@H](O)C[C@@H]1[C@@]3(C)CC[C@H](O)C(C)(C)[C@@H]3[C@@H](O[C@@H]3O[C@H](CO)[C@@H](O)[C@H](O)[C@H]3O)C[C@]12C [ginsenoside Rg1] | did not showed any protective effects |  |  |  | 
4 | CKSAGTWCGFD-PHGCCG--SCGCLV--GFCYGVSC- (CKSAGTWCGFDPHGCCGSCGCLVGFCYGVSC; Panax ginseng) [Ginsentide TP3] |  | not KCI-induced contracted aortic ring | comparable cellular NO release | retented in a heparin HPLC affinity column | relaxes phenylephrine-induced aortic ring contraction
5 | CISSGGWCGFD-LHGCCG--NCGCLV--GFCYGTGC- (CISSGGWCGFDLHGCCGNCGCLVGFCYGTGC; listed as Panax quinquefolius) [Ginsentide TP8] |  | not KCI-induced contracted aortic ring | comparable cellular NO release |  | relaxes phenylephrine-induced aortic ring contraction
6 | CKSGGSWCGFD-PHGCCG--NCGCLV--GFCYGTGC- [Ginsentide TP9] |  |  |  | retented in a heparin HPLC affinity column | 
